Read-outs that look alike come from different tables or passages of the source.
What was measured:
U937 cell = assay: Cell inhibition assay method B (tritiated thymidine incorporation, 72 hrs); type: cell-based; conditions: Homo sapiens, U-937, read-out: Inhibition of U937 cell proliferation (IC50, nM) (method B)
Procedure: (§1) Cell inhibition assays were carried out using either method A or method B
The plates were then incubated at 37° C., 5% CO2 for 72 hrs.
A tritiated thymidine incorporation assay was used as a measure of cell proliferation. In short, cells were incubated with 0.4 μCi/well for 4 hrs before harvesting onto filtermats. These were dried, meltilex scintillation sheets melted on, then sealed in bags and ^3H emission counted on a Trilux microbeta counter.

HCT 116 cell line = assay: Cell inhibition assay method A (WST-1, 120 hrs); type: cell-based; conditions: Homo sapiens, HCT-116, method A, read-out: Inhibitor Activity vs HCT 116 cell line (method A)
Procedure: as §1
Cells were seeded in 96W tissue culture plates (1 well=30 mm^2) at a density of […] per well in 50 μL of the appropriate culture medium (see below). 24 hrs later […] of the compound prepared in the same medium was added as 4 fold dilutions to give final concentrations in the range 0.15 nM-2500 nM (n=6 for each concentration). The plates were then incubated at 37° C., 5% CO2 for 120 hrs. Cell proliferation was assessed using WST-1 (a metabolic indicator dye, Roche Cat no. 1 644 807) according to the manufacturers instructions. The results were calculated as percentage of vehicle response and IC50 values represent the concentration of compound that inhibited the vehicle response by 50%.
HCT-116 culture medium —Dulbeccos MEM (Sigma D6546) plus 10% heat inactivated fetal calf serum (Hyclone SH30071 Thermo Fischer Scientific) containing 2 mM Glutamine (Sigma cat no G-7513) and 50 U/ml Penicillin and Streptomycin Sulphate (Sigma Cat no P-0781).

PLK1 = biological target: T1, PLK1 (Homo sapiens, UniProt P53350); assay: PLK1 enzyme assay (Z'-LYTE, Invitrogen); type: biochemical
T1 construct: purchased Invitrogen (Paisley, UK)
Procedure: The ability of compounds to inhibit PLK-1 kinase activity was measured in an assay performed by Invitrogen (Paisley, UK). The Z′-LYTE™ biochemical assay employs a fluorescence-based, coupled-enzyme format and is based on the differential sensitivity of phosphorylated and non-phosphorylated peptides to proteolytic cleavage. The peptide substrate is labelled with two fluorophores—one at each end—that make up a FRET pair. In the primary reaction, the kinase transfers the gamma-phosphate of ATP to a single serine or threonine residue in a synthetic FRET-peptide. In the secondary reaction, a site-specific protease recognizes and cleaves non-phosphorylated FRET-peptides. Phosphorylation of FRET-peptides suppresses cleavage by the Development Reagent. Cleavage disrupts FRET between the donor (i.e., coumarin) and acceptor (i.e., fluorescein) fluorophores on the FRET-peptide, whereas uncleaved, phosphorylated FRET-peptides maintain FRET. A […] method, which calculates the ratio (the Emission Ratio) of donor emission to acceptor emission after excitation of the donor fluorophore at 400 nm, is used to quantitate reaction progress.
The assay is performed at an ATP concentration at, or close to, the Km. After the 60 minute Kinase Reaction incubation at RT, 5 μL of a 1:8 dilution of Development Reagent is added. The assay plate is incubated for a further 60 minutes at RT and read on a fluorescence plate reader.
Duplicate data points are generated from a ⅓ log dilution series of a stock solution of test compound in DMSO. Nine dilutions steps are made from a top concentration of 10 μM, and a ‘no compound’ blank is included. Data is collected and analysed using XLfit software from IDBS.

[1] = ATP at or close to Km, read-out: Inhibitor Activity vs PLK1

T1 sequence (P53350 whole entry): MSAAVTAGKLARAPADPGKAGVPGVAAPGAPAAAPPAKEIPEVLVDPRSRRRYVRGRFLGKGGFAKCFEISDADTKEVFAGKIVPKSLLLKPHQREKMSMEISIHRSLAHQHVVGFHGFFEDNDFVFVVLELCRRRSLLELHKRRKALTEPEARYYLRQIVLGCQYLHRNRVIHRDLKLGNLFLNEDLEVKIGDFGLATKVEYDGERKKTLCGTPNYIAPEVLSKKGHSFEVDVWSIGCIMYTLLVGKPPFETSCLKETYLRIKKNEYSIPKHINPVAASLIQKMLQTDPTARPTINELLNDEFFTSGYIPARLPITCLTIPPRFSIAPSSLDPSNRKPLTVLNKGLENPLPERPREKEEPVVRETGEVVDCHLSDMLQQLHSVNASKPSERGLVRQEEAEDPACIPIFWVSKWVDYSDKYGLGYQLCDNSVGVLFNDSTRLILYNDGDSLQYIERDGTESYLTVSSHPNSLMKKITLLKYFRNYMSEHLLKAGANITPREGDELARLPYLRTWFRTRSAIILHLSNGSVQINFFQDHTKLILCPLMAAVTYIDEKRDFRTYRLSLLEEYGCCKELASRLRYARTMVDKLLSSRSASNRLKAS

IC50 (U937 cell) [nM] | IC50 (HCT 116 cell line) [nM] | IC50 (PLK1; [1]) [nM] | IC50 (PLK1; ester (for Compound 1: the compound itself, one cell spans ester/acid), read-out: Inhibition of PLK (IC50, nM) ester) [nM] | SMILES
0.09 | < 100 | < 100 | 6 | CC[C@@H]1C(=O)N(C)c2cnc(Nc3ccc(C(=O)NC4CCN(CC[C@H](N)C(=O)OC5CCCC5)CC4)cc3OC)nc2N1C1CCCC1 [Example 22, Cyclopentyl (2S)-2-amino-4-{4-[(4-{[(7R)-8-cyclopentyl-7-ethyl-5-methyl-6-oxo-5,6,7,8-tetrahydropteridin-2-yl]amino}-3-methoxybenzoyl)amino]piperidin-1-yl}butanoate]
 | < 100 | < 100 |  | CC[C@@H]1C(=O)N(C)c2cnc(Nc3ccc(C(=O)NC4CCN(CC[C@H](N)C(=O)OC(C)(C)C)CC4)cc3OC)nc2N1C1CCCC1 [Example 25, t-Butyl (2S)-2-amino-4-{4-[(4-{[(7R)-8-cyclopentyl-7-ethyl-5-methyl-6-oxo-5,6,7,8-tetrahydropteridin-2-yl]amino}-3-methoxybenzoyl)amino]piperidin-1-yl}butanoate]
 | < 100 | < 100 |  | CC[C@@H]1C(=O)N(C)c2cnc(Nc3ccc(C(=O)NC4CCN(CC[C@H](N)C(=O)OC(C)(C)C)CC4)cc3C)nc2N1C1CCCC1 [Example 26, t-Butyl (2S)-2-amino-4-{4-[(4-{[(7R)-8-cyclopentyl-7-ethyl-5-methyl-6-oxo-5,6,7,8-tetra hydropteridin-2-yl]amino}-3-methylbenzoyl)amino]piperidin-1-yl}butanoate]
 | < 100 | < 100 |  | CC[C@@H]1C(=O)N(C)c2cnc(Nc3ccc(C(=O)NC4CCN(CCC[C@@H](N)C(=O)OC5CCCC5)CC4)cc3OC)nc2N1C1CCCC1 [Example 27, Cyclopentyl 5-{4-[(4-{[(7R)-8-cyclopentyl-7-ethyl-5-methyl-6-oxo-5,6,7,8-tetrahydropteridin-2-yl]amino}-3-methoxybenzoyl)amino]piperidin-1-yl}-D-norvalinate]
 | < 100 | < 100 |  | CC[C@@H]1C(=O)N(C)c2cnc(Nc3ccc(C(=O)NC4CCN(CC[C@H](N)C(=O)OC5CCCC5)CC4)cc3C)nc2N1C1CCCC1 [Example 28, Cyclopentyl (2S)-2-amino-4-(4-[(4-{[(7R)-8-cyclopentyl-7-ethyl-5-methyl-6-oxo-5,6,7,8-tetra hydropteridin-2-yl]amino}-3-methylbenzoyl)amino]piperidin-1-yl}butanoate]
 | < 100 | < 100 |  | CC[C@@H]1C(=O)N(C)c2cnc(Nc3ccc(C(=O)NC4CCN(CC[C@H](N)C(=O)OC(C)(C)C)CC4)cc3F)nc2N1C1CCCC1 [Example 29, t-Butyl (2S)-2-amino-4-{4-{(4-{[(7R)-8-cyclopentyl-7-ethyl-5-methyl-6-oxo-5,6,7,8-tetrahydropteridin-2-yl]amino}-3-fluorobenzoyl)amino]piperidin-1-yl}butanoate]
 | < 100 | < 100 |  | CC[C@@H]1C(=O)N(C)c2cnc(Nc3ccc(C(=O)NC4CCN(CC[C@H](N)C(=O)OC5CCCC5)CC4)cc3F)nc2N1C1CCCC1 [Example 30, Cyclopentyl (2S)-2-amino-4-{4-[(4-{[(7R)-8-cyclopentyl-7-ethyl-5-methyl-6-oxo-5,6,7,8-tetra hydropteridin-2-yl]amino}-3-fluorobenzoyl)amino]piperidin-1-yl}butanoate]
 | < 100 | < 100 |  | CC[C@@H]1C(=O)N(C)c2cnc(Nc3ccc(C(=O)NC4CCN(CC[C@@H](N)C(=O)OC5CCCC5)CC4)cc3OC)nc2N1C1CCCC1 [Example 31, Cyclopentyl (2R)-2-amino-4-{4-[(4-{((7R)-8-cyclopentyl-7-ethyl-5-methyl-6-oxo-5,6,7,8-tetra hydropteridin-2-yl]amino}-3-methoxybenzoyl)amino]piperidin-1-yl}butanoate]

Reference: US20100216802A1, “PTERIDINE DERIVATIVES AS POLO-LIKE KINASE INHIBITORS USEFUL IN THE TREATMENT OF CANCER” (CHROMA THERAPEUTICS LTD., priority 2006, published 2010)
